Common to all, as to assay type: cell-based, Staphylococcus aureus
In test [1] the test system is S. aureus. The test can be described thus: SAR of targocil analogs: MIC and mutation frequency. From the text:
Based on the discovery of targocil as an inhibitor of WTA biosynthesis, further studies of the antibiotic were undertaken to elucidate the basis of its activity and to discover other antibiotics based on the structure of targocil. The goal for the initial SAR of targocil was to alter only the A ring to determine modifications that would improved potency as measured by MIC. We developed synthetic chemistry schemes to modify the targocil scaffold and, initially, nineteen different derivatives of targocil were made. […] Modifications to the D ring appear particularly promising. Finally, the optimized compounds from this second round of SAR could then be used to discover modifications to the amine group that could be tolerated.

Test [2] deals with S. aureus. The test is described as follows: Two dimensional drug interaction analysis between tunicamycin and targocil. To be noted: normally inhibitory concentrations of targocil; 18 h at 30° C. The procedure: (A) Targocil MIC data for a panel of Gram-positive strains, including MRSA clinical isolates B5271 and 5340A. Growth was monitored in triplicate after 12 h at 28° C. using optical density. (B) Two dimensional drug interaction analysis between tunicamycin and targocil grown for 18 h at 30° C. […] At higher concentrations, tunicamycin is toxic because it inhibits cell wall biosynthesis. […] Varying concentrations of drug were added to […] of S. aureus RN4220 after 5 h and cell count was monitored over time at 30° C. […] Cells were grown at 28° C. for 12 h and monitored for growth using optical density (OD600). Data were normalized to the DMSO controls for each strain. (E) Two classes of mutants were examined: phage resistant (m1 3) and phage sensitive (m4-5).
Having discovered targocil, the next challenge was to identify its target in S. aureus. We first used the natural product tunicamycin to verify that targocil requires the presence of a functional WTA pathway. Although toxic at high concentrations, tunicamycin is a selective TarO inhibitor that abolishes WTA expression at sublethal concentrations. (Hancock I C, Wiseman G, & Baddiley J (1976) Febs Letters 69:75-80) We predicted that tunicamycin should antagonize targocil by preventing flux into the WTA biosynthetic pathway. […]

In another test the test system is S. aureus RN4220. The test can be described thus: Phage infection (PFUs) of S. aureus grown with tunicamycin. To be noted: increasing tunicamycin.
Test [3] concerns WTA biosynthesis in S. aureus RN4220. The test is described as follows: PAGE analysis of WTAs isolated from S. aureus RN4220 grown with tunicamycin. To be noted: increasing but sub-lethal concentrations of tunicamycin.

Entries after “also recorded” stand apart in the source; their conditions may differ.

Take `CCN(CC)c1nc2c(S(=O)(=O)c3ccccc3)nnn2c2cc(OC)c(OC)cc12` [Compound 4-22-7, N,N-Diethyl-7,8-dimethoxy-3-(phenylsulfonyl)-[1,2,3]triazolo[1,5-a]quinazolin-5-amine]: the “mutation frequency, relative to targocil” value in the test on S. aureus [1] (in vitro) is reported as “better”. For the same compound, the “potency as measured by MIC, relative to targocil” value in the test on S. aureus [1] (two methoxy groups at R1 and R2 of ring A) was “more potent”.

Turning to tunicamycin, in the test on S. aureus [2], the “antagonism of targocil by tunicamycin” value was “complete protection; also recorded: antagonizes the lethal effect of targocil”. Further, the “phage infection (PFUs)” value in the test with S. aureus RN4220 was “dose-dependent decrease”. Further, the “WTA biosynthesis (PAGE of isolated WTAs)” value in test [3] is on record as “dose-dependent decrease”.

These data come from patent US8598342B2, “Methods and compounds for antimicrobial intervention” (President and Fellows of Harvard College, priority 2008, dated 2013).
